This passage reports Ki, Reduction and Displacement results from ChEMBL document CHEMBL1123613, “2,4-Diamino-6,7-dimethoxyquinazolines. 3. 2-(4-Heterocyclylpiperazin-1-yl) derivatives as alpha 1-adrenoceptor antagonists and antihypertensive agents” (J Med Chem, 1987).

Active and inactive are the calls of the source. The calls are words filed in the database; no cut-off is given here.

Assay [1] concerns the target T1, Adrenergic receptor alpha-1 (Rattus norvegicus, UniProt P15823+P23944+P43140).
T1 sequence (P15823 whole entry): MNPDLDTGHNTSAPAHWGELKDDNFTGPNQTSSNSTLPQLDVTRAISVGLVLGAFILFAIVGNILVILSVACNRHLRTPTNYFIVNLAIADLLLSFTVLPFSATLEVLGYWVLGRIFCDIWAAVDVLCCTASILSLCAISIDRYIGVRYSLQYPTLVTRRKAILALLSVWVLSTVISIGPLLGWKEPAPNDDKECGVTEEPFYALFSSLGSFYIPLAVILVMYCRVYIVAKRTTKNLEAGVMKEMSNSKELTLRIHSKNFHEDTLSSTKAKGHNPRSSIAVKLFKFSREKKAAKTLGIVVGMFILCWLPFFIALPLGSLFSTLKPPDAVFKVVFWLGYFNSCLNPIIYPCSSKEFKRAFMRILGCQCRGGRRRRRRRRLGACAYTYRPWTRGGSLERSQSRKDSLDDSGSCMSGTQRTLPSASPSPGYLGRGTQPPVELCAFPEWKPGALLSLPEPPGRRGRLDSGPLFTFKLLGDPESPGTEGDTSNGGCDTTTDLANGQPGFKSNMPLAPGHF
T1 sequence (P23944 whole entry): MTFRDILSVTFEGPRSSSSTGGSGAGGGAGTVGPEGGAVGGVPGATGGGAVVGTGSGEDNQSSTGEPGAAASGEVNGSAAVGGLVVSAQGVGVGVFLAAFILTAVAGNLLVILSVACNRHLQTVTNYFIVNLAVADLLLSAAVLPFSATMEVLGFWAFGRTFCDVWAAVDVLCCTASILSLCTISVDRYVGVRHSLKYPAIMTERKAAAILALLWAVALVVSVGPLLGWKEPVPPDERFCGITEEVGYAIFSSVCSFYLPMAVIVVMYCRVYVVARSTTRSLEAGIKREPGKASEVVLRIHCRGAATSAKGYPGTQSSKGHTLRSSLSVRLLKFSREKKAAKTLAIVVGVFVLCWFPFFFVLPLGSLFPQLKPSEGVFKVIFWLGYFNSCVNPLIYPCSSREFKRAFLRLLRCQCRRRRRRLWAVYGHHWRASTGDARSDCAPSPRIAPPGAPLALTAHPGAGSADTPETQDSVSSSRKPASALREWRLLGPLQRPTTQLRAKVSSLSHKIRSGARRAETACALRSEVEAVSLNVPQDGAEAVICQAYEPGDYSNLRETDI
T1 sequence (P43140 whole entry): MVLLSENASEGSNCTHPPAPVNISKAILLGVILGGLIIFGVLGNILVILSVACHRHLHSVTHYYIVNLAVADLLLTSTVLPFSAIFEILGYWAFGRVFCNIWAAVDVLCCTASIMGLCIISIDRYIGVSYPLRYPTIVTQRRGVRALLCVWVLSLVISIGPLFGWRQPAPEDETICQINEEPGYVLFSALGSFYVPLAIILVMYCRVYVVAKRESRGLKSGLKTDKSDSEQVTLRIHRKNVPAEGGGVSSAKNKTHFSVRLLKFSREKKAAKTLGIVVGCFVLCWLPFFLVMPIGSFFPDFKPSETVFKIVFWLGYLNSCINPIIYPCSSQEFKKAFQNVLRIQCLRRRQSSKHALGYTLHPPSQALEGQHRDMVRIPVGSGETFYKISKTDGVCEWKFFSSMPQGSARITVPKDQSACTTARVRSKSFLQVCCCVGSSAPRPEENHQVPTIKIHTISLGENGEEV
The assay is described as follows: Binding affinity against alpha-1-adrenoceptor in rat brain homogenates [3H]-prazosin displacement. The format is tissue-based.

The subject of assay [2] is Rattus norvegicus. The assay is described as follows: Antihypertensive activity was determined by percent reduction in blood pressure after 4 hr upon peroral administration of 3 mg/kg dose in spontaneously hypertensive rats(SHR). The settings on record: route oral. The format is functional.
The target of assay [3] is T2, Adrenergic receptor alpha-2 (Rattus norvegicus) (UniProt P22086+P19328+P22909). The assay is described as follows: Percent displacement of [3H]clonidine from alpha-2-adrenoceptor in rat brain homogenates at 10E-6 M; Activity of less than 50%. The format is tissue-based. For orientation: Loss of bound radioactivity is the signal in a displacement assay; it reports binding, not function.

Assay [4] deals with Rattus norvegicus. The assay is described as follows: Antihypertensive activity was determined by percent reduction in blood pressure after 1 hr upon peroral administration of 5 mg/kg dose in spontaneously hypertensive rats(SHR). The format is functional. To be noted: route oral.
For assay [5], the system named is Rattus norvegicus. The assay is described as follows: Antihypertensive activity was determined by percent reduction in blood pressure after 6 hr upon peroral administration of 5 mg/kg dose in spontaneously hypertensive rats(SHR). It is filed as functional. To be noted: route oral.
The test system of assay [6] is Rattus norvegicus. Nature of the assay: Antihypertensive activity was determined by percent reduction in blood pressure after 6 hr upon peroral administration of 5 mg/kg dose in spontaneously hypertensive rats(SHR); not significant because of blood pressure falls below 10%. The settings on record: route oral. It is filed as functional.
The subject of assay [7] is Rattus norvegicus. Nature of the assay: Antihypertensive activity was determined by percent reduction in blood pressure after 1 hr upon peroral administration of 5 mg/kg dose in spontaneously hypertensive rats(SHR); not significant because of blood pressure falls below 10%. The format is functional. The settings on record: route oral.
The target of assay [8] is T2, Adrenergic receptor alpha-2 (Rattus norvegicus). Nature of the assay: Percent displacement of [3H]clonidine to alpha-2-adrenoceptor was determined in rat brain homogenates at 10E-6 M. The format is tissue-based.

By Ki is commonly meant a measure of affinity in units of concentration, obtained from inhibition or displacement. A lower Ki goes with higher affinity. `COc1cc2nc(N3CCN(c4cccnn4)CC3)nc(N)c2cc1OC` had a Ki in assay [1] of 400 pM. The Reduction was 20% with Rattus norvegicus [2] and 22% in the assay with Rattus norvegicus [4]. Besides, in assay [3], the Displacement entry was “inactive”.
In assay [1], `CCCOc1ccnc(N2CCN(c3nc(N)c4cc(OC)c(OC)cc4n3)CC2)n1` gave a Ki of 320 pM. For the same compound, the Displacement result in assay [3] is “inactive”. In addition, the Reduction came to 22% with Rattus norvegicus [5] and 34% in the assay with Rattus norvegicus [4].
`COc1cc2nc(N3CCN(c4cnccn4)CC3)nc(N)c2cc1OC` showed a Ki in assay [1] of 180 pM. The values for the Reduction in the assay on Rattus norvegicus [6] and with Rattus norvegicus [7] were 8% and 7%, respectively. Moreover, the Displacement result in assay [3] was “inactive”.
As to `COc1cc2nc(N3CCN(c4nccc(N(C)C)n4)CC3)nc(N)c2cc1OC`, in assay [1], the Ki turned out to be 270 pM. Moreover, the Displacement entry in assay [3] was “inactive”. Besides, the Reduction in the assay on Rattus norvegicus [7] is reported as 7%; with Rattus norvegicus [5] it was 13%.
`COc1ccnc(N2CCN(c3nc(N)c4cc(OC)c(OC)cc4n3)CC2)n1` came in with a Ki in assay [1] of 190 pM. Moreover, the Displacement entry in assay [3] was “inactive”. The Reduction in the assay on Rattus norvegicus [5] was 14%; in the assay with Rattus norvegicus [4] it was 15%.
`CCCOc1cc(N2CCN(c3nc(N)c4cc(OC)c(OC)cc4n3)CC2)ncn1` yielded an inhibitory constant (Ki) in assay [1] of 360 pM. The Displacement result in assay [3] was “inactive”. The Reduction with Rattus norvegicus [5] turned out to be 22%; in the assay on Rattus norvegicus [4], 39%.
The corresponding values for `COc1cc2nc(N3CCN(c4ccnc(Oc5ccccc5)n4)CC3)nc(N)c2cc1OC` are 240 pM, “inactive”, 24% and 19%.
Take `COc1cc2nc(N3CCN(c4cc(OC(C)C)ncn4)CC3)nc(N)c2cc1OC`: the Ki in assay [1] stood at 180 pM. For the same compound, the Displacement result in assay [3] is “inactive”. The Reduction in the assay with Rattus norvegicus [5] is listed as 49%; in the assay on Rattus norvegicus [4] it was 55%.
Turning to `COc1cc(N2CCN(c3nc(N)c4cc(OC)c(OC)cc4n3)CC2)nc(OC)n1`, in assay [1], the Ki is 160 pM. Also, the Displacement in assay [8] was 54.2%. Also, the Reduction is recorded as 20% with Rattus norvegicus [5] and 22% in the assay on Rattus norvegicus [4].
For `COc1cc2nc(N3CCN(c4ccncn4)CC3)nc(N)c2cc1OC`, the Ki in assay [1] was found to be 270 pM. Further, the Reduction was 12% with Rattus norvegicus [2] and 21% with Rattus norvegicus [4]. Also, the Displacement result in assay [3] is “inactive”.
In the case of `COc1cc2nc(N3CCN(c4nccc(-c5ccccc5)n4)CC3)nc(N)c2cc1OC`, the Ki in assay [1] stood at 1660 pM. Also, the Displacement entry in assay [3] was “inactive”. The Reduction in the assay on Rattus norvegicus [5] and in the assay on Rattus norvegicus [4] was 17% in each case.
In the case of `COc1cc2nc(N3CCN(c4ccc(OC(C)C)nn4)CC3)nc(N)c2cc1OC`, the inhibitory constant (Ki) in assay [1] came out at 290 pM. The Reduction in the assay with Rattus norvegicus [2] is 33%; in the assay with Rattus norvegicus [4], 39%. Further, in assay [3], the Displacement result was “inactive”.
On to `COc1cc2nc(N3CCN(C(=O)c4ccco4)CC3)nc(N)c2cc1OC` [PRAZOSIN], for which the Reduction amounted to 29% in the assay on Rattus norvegicus [5] and 33% with Rattus norvegicus [4].
In assay [1], `COc1nc(OC)nc(N2CCN(c3nc(N)c4cc(OC)c(OC)cc4n3)CC2)n1` had a Ki of 80 pM. Moreover, in assay [3], the Displacement entry is “inactive”. In addition, the Reduction worked out at 22% in the assay with Rattus norvegicus [5] and 15% with Rattus norvegicus [4].
As for `COc1cc2nc(N3CCN(c4ccnc(N5CCOCC5)n4)CC3)nc(N)c2cc1OC`, the Ki in assay [1] is 310 pM. Besides, the Reduction in the assay with Rattus norvegicus [2] came to 43%; in the assay with Rattus norvegicus [4], 16%. For the same compound, in assay [3], the Displacement result is “inactive”.
As for `COc1cc2nc(N3CCN(c4cc(N(C)C)ncn4)CC3)nc(N)c2cc1OC`, the Reduction in the assay on Rattus norvegicus [7] is reported as 8%; in the assay on Rattus norvegicus [5], 18%.
`COc1cc2nc(N3CCN(c4nccc(C)n4)CC3)nc(N)c2cc1OC` gave a Ki in assay [1] of 920 pM. Further, the Displacement result in assay [3] was “inactive”. In addition, the values for the Reduction in the assay with Rattus norvegicus [5] and in the assay on Rattus norvegicus [4] were 15% and 28%, respectively.
For `COc1cc2nc(N3CCN(c4nc(Oc5ccccc5)nc(Oc5ccccc5)n4)CC3)nc(N)c2cc1OC`, the Ki in assay [1] stood at 870 pM. The Reduction in the assay with Rattus norvegicus [6] was found to be 8%; with Rattus norvegicus [7] it was 9%. In addition, in assay [3], the Displacement result is “inactive”.
`COc1cc2nc(N3CCN(c4nc(N)nc(N)n4)CC3)nc(N)c2cc1OC` displayed a Ki in assay [1] of 470 pM. In addition, the Displacement result in assay [3] is “inactive”. For the same compound, the Reduction was found to be 2% in the assay on Rattus norvegicus [7] and 12% in the assay on Rattus norvegicus [5].
On to `COc1cc2nc(N3CCN(c4ncccn4)CC3)nc(N)c2cc1OC`, for which the Ki in assay [1] stood at 260 pM. Moreover, in assay [3], the Displacement result was “inactive”. Further, the Reduction in the assay on Rattus norvegicus [5] was found to be 28%; with Rattus norvegicus [4], 40%.
